Here are results for 16 compounds from patent US10285989B2, “Pyrimidinone amide compounds as PDE2 inhibitors” (Merck Sharp & Dohme Corp., priority 2015, dated 2019).

Like-named read-outs stand apart in the source and are kept apart here.

One data set concerns the target human PDE2A1 (Homo sapiens (Human), UniProt O00408). Kind of data set: PDE2 IMAP FP inhibition assay, human PDE2A1 (selectivity panel format). Format: biochemical. In a few lines: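 IMAP fluorescence polarization assay; substrate 50 nM FAM-cAMP with 1000 nM cGMP, enzyme at ~20% conversion, in 10 mM Tris pH 7.2, 10 mM MgCl2, 1 mM DTT, 0.01% Tween-20. 60 min room temperature, stopped with IMAP binding reagent, 1 h, then parallel/perpendicular fluorescence read.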

For data set [1], the target named is P-glycoprotein (P-gp, rat Mdr1a) (Rattus norvegicus, UniProt Q6PSM0). Kind of data set: P-gp transport, experimental BA/AB ratio, rat LLC-Mdr1a. The class given is in vitro ADME. The following applies: LLC-PK1; rat LLC-Mdrla; 1 μM substrate concentration. An excerpt: (§1) See Doan et al. “Passive permeability and P-glycoprotein-mediated efflux differentiate central nervous system (CNS) and non-CNS marketed drugs”, J. Pharm. Exper. […] Desirable human BA/AB ratio is less than 2.0. […] See, for example, Desai, et al. Integration of in Silico and in Vitro Tools for Scaffold Optimization during Drug Discovery: Predicting P-glycoprotein Efflux” Mol. Pharmac.
Chain of P-glycoprotein (P-gp, rat Mdr1a) (Q6PSM0 1-1272): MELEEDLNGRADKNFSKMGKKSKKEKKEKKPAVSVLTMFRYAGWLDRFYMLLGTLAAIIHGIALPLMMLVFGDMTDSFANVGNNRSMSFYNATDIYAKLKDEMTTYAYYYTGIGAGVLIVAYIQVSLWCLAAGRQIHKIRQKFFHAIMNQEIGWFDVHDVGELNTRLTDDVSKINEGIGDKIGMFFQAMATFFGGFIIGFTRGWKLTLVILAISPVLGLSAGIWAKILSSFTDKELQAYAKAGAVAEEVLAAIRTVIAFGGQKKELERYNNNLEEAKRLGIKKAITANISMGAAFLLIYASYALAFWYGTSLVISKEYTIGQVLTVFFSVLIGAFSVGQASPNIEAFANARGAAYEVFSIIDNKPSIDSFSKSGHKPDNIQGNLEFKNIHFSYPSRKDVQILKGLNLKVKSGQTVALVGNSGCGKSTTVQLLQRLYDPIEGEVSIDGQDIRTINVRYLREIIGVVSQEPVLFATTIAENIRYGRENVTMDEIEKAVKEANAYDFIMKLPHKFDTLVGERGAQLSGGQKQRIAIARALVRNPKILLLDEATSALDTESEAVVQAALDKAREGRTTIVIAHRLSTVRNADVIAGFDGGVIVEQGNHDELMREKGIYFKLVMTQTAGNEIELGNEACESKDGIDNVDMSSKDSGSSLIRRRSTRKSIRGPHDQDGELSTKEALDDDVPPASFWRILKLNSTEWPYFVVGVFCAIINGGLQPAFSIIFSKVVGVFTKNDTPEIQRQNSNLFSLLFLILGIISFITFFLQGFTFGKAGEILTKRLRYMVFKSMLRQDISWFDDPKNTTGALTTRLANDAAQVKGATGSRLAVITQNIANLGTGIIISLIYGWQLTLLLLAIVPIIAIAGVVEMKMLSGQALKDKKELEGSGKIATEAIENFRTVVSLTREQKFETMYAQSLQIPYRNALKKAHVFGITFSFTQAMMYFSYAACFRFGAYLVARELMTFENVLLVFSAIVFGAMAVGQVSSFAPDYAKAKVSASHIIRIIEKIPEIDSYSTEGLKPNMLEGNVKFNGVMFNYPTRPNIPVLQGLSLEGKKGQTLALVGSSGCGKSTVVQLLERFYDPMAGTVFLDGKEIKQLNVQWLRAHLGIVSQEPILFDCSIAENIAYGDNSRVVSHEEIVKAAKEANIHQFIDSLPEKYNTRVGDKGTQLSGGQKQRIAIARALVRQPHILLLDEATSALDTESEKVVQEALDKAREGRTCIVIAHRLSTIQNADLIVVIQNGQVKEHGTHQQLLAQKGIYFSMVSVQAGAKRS

Another data set deals with P-glycoprotein (P-gp) (Homo sapiens (Human), UniProt P08183). Kind of data set: P-gp transport, experimental BA/AB ratio, human. The class given is in vitro ADME. To be noted: LLC-PK1, 1 μM substrate concentration.
Chain of P-glycoprotein (P-gp) (P08183 whole entry): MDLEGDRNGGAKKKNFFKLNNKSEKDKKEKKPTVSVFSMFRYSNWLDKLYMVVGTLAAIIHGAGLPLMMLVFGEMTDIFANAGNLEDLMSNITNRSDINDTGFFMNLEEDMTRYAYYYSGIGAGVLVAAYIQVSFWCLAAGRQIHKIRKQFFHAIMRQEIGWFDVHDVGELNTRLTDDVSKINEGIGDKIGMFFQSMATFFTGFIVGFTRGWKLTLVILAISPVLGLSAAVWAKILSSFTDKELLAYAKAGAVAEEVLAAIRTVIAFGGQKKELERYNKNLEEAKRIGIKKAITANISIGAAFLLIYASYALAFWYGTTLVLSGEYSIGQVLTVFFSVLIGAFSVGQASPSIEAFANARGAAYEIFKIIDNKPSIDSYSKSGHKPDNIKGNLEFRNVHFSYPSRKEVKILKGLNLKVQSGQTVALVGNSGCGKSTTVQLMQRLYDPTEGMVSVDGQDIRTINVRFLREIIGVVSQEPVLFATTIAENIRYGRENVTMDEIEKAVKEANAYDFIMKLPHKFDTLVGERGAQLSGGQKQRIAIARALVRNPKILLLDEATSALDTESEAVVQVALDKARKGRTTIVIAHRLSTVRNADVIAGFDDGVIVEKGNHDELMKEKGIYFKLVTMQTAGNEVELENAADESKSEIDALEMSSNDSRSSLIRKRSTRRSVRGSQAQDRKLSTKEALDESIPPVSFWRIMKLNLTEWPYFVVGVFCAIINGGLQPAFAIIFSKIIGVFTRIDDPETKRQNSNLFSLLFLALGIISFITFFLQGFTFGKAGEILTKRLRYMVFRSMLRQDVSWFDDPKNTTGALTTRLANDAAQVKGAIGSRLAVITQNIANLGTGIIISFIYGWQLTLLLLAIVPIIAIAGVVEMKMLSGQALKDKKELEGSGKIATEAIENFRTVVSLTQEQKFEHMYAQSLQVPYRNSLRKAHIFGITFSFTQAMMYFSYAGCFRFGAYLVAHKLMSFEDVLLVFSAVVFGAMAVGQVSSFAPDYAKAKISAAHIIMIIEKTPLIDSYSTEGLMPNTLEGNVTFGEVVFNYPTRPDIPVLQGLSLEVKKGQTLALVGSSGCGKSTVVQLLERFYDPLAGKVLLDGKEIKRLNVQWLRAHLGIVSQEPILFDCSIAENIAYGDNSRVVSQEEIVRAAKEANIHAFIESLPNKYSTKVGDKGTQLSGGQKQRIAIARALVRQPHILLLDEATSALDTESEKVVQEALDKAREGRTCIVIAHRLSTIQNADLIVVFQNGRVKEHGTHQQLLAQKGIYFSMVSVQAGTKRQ
Text: as §1

The next data set concerns the target Rhesus PDE2A3 (Macaca mulatta, UniProt B3VTJ2). Kind of data set: PDE2 fluorescence polarization (IMAP FP) inhibition assay, rhesus PDE2A3. The class given is biochemical, rhesus macaque.
Where [2] appears, read: Lab B, read-out: Human PDE2 Ki (nM) - Lab B.
The mark [3] stands for this setting: Lab B, read-out: Rhesus PDE2 Ki (nM) - Lab B.
Where [4] appears, read: Lab A, read-out: Rhesus PDE2 Ki (nM) - Lab A.
[5] abbreviates: Lab A, read-out: Human PDE2 Ki (nM) - Lab A.

Chain of Rhesus PDE2A3 (B3VTJ2 1-941): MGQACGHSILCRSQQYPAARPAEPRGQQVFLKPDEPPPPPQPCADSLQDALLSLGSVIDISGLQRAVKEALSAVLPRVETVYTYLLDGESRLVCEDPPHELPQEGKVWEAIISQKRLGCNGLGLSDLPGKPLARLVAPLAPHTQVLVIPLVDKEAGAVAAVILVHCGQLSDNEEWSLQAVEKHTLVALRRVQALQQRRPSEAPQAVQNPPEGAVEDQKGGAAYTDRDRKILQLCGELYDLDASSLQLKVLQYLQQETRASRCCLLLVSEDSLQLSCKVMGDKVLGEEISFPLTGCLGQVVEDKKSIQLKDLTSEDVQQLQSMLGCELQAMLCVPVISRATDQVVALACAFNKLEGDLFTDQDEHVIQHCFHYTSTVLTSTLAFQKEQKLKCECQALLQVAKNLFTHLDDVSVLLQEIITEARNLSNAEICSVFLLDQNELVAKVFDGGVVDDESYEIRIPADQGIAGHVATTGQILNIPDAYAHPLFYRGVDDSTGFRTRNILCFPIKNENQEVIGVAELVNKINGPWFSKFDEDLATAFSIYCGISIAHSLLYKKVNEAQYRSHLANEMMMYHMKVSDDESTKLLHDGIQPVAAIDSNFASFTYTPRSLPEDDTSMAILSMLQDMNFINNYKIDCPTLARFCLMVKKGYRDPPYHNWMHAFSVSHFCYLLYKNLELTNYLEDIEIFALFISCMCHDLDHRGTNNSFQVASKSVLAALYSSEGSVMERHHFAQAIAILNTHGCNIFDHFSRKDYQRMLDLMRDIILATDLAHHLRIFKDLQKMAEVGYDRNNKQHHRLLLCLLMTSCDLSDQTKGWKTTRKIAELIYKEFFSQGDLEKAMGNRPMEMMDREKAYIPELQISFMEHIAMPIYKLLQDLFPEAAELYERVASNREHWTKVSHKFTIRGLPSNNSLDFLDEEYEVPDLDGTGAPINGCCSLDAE
Chain of human PDE2A1 (O00408 other isoform, or with tags, fused parts or gaps): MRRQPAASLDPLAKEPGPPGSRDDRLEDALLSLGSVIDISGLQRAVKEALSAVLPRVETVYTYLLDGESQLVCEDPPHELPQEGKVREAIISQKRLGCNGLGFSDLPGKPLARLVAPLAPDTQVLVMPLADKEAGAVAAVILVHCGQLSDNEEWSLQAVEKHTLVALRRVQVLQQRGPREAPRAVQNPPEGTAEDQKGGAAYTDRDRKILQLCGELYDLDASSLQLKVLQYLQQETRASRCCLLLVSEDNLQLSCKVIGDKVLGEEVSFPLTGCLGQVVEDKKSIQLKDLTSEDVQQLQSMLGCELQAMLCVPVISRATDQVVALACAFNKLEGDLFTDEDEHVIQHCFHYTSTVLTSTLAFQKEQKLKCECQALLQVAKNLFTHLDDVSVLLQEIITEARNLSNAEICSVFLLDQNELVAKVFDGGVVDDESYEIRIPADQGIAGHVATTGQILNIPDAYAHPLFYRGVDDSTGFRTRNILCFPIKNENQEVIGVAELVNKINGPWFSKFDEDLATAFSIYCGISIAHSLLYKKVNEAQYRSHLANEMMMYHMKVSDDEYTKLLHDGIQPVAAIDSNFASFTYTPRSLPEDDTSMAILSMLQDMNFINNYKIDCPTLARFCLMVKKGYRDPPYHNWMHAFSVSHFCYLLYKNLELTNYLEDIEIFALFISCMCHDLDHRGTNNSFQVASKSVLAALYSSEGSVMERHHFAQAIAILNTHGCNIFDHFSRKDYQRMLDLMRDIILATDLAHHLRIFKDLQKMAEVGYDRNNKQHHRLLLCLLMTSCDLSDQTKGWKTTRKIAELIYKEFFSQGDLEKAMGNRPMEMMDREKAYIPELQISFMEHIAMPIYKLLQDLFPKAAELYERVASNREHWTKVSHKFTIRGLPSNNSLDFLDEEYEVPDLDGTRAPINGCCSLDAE

For `O=C(N[C@@H](c1ccc(C(F)(F)F)cc1)C1CC1)c1cc(=O)[nH]c(N2CC[C@H](F)C2)n1` [Example 167, N-{(R)-cyclopropyl[4-(trifluoromethyl)phenyl]methyl}-2-[(3S)-3-fluoropyrrolidin-1-yl]-6-oxo-1,6-dihydropyrimidine-4-carboxamide], the figures for the Ki at human PDE2A1 (setting [2]) and at Rhesus PDE2A3 (setting [3]) were 2.3 nM and 1.4 nM, respectively. Further, the efflux ratio at 1 μM in data set [1] stood at 27.4; at P-glycoprotein (P-gp), 1.9.

On to `CN(C)c1nc(C(=O)N[C@@H](c2ccc(C3CC3)cc2)C2(C)CC2)cc(=O)[nH]1` [Example 71, N-[(R)-(4-cyclopropylphenyl)(1-methylcyclopropyl)methyl]-2-(dimethylamino)-6-oxo-1,6-dihydropyrimidine-4-carboxamide], for which the figures for the Ki at human PDE2A1 (setting [2]) and on Rhesus PDE2A3 (setting [3]) were 0.21 nM and 0.23 nM, respectively. In addition, the efflux ratio at 1 μM in data set [1] was determined as 4.8; at P-glycoprotein (P-gp), 0.3.

For `CN(C)c1nc(C(=O)N[C@@H](c2ccc(S(F)(F)(F)(F)F)cc2)C2(C)CC2)cc(=O)[nH]1` [Example 57, 2-(dimethylamino)-N-{(R)-(1-methylcyclopropyl)[4-(pentafluoro-λ^6-sulfanyl)phenyl]methyl}-6-oxo-1,6-dihydropyrimidine-4-carboxamide], the Ki on human PDE2A1 (setting [2]) was determined as 0.31 nM; on Rhesus PDE2A3 (setting [3]), 0.28 nM. Moreover, the results for the efflux ratio at 1 μM (in data set [1]; at P-glycoprotein (P-gp)) were 0.7 and 1.7, respectively.

Regarding `CN(C)c1nc(C(=O)N[C@@H](c2ccc(C(F)(F)F)cc2)C2CC2)cc(=O)[nH]1` [Example 108, N-{(1R)-cyclopropyl[4-(trifluoromethyl)phenyl]methyl}-2-(dimethylamino)-6-oxo-1,6-dihydropyrimidine-4-carboxamide], the Ki on human PDE2A1 (setting [2]) is 1.8 nM; on Rhesus PDE2A3 (setting [4]), 0.66 nM; on Rhesus PDE2A3 (setting [3]), 1.3 nM. For the same compound, the efflux ratio at 1 μM is 1.9 in data set [1] and 0.4 on P-glycoprotein (P-gp).

`CN(C)c1nc(C(=O)NC2(c3ccc(C(F)(F)F)c(F)c3)CC2)cc(=O)[nH]1` [Example 94, 2-(dimethylamino)-N-{1-[3-fluoro-4-(trifluoromethyl)phenyl]cyclopropyl}-6-oxo-1,6-dihydropyrimidine-4-carboxamide]: the Ki came out at 0.9 nM on human PDE2A1 (setting [5]), 0.96 nM at human PDE2A1 (setting [2]), 1.2 nM on Rhesus PDE2A3 (setting [4]) and 0.8 nM on Rhesus PDE2A3 (setting [3]). In addition, the efflux ratio at 1 μM was 2.6 in data set [1] and 0.5 at P-glycoprotein (P-gp).

In the case of `CN(C)c1nc(C(=O)N[C@@H](c2ccc(C(F)(F)F)c(F)c2)C2CC2)cc(=O)[nH]1` [Example 109, N-{(1R)-cyclopropyl[3-fluoro-4-(trifluoromethyl)phenyl]methyl}-2-(dimethylamino)-6-oxo-1,6-dihydropyrimidine-4-carboxamide], the Ki on human PDE2A1 (setting [2]) was found to be 1.9 nM; at Rhesus PDE2A3 (setting [4]), 0.91 nM; on Rhesus PDE2A3 (setting [3]), 1.4 nM. The results for the efflux ratio at 1 μM (in data set [1]; on P-glycoprotein (P-gp)) were 2.5 and 0.5, respectively.

For the compound `O=C(N[C@@H](c1ccc(C(F)(F)F)cc1)C1CC1)c1cc(=O)[nH]c(N2CCCC2)n1` [Example 26], the Ki on human PDE2A1 (setting [5]) amounted to 0.34 nM; on Rhesus PDE2A3 (setting [4]), 1.4 nM. For the same compound, the efflux ratio at 1 μM in data set [1] was 4.5; on P-glycoprotein (P-gp), 0.9.

On to `CN(C)c1nc(C(=O)N[C@@H](c2ccc(C(C)(F)F)cc2)C(C)(C)C)cc(=O)[nH]1` [Example 76, N-{(1R)-1-[4-(1,1-difluoroethyl)phenyl]-2,2-dimethylpropyl}-2-(dimethylamino)-6-oxo-1,6-dihydropyrimidine-4-carboxamide], for which the Ki at human PDE2A1 (setting [2]) was determined as 0.12 nM; on Rhesus PDE2A3 (setting [3]), 0.11 nM. Moreover, the efflux ratio at 1 μM turned out to be 4.5 in data set [1] and 1.6 on P-glycoprotein (P-gp).

On to `CC(C)[C@@H](NC(=O)c1cc(=O)[nH]c(N2CC(F)C2)n1)c1ccc(OC(F)(F)F)c(F)c1` [Example 164, 2-(3-fluoroazetidin-1-yl)-N-{(1R)-1-[3-fluoro-4-(trifluoromethoxy)phenyl]-2-methylpropyl}-6-oxo-1,6-dihydropyrimidine-4-carboxamide], for which the Ki at human PDE2A1 (setting [2]) is 3.9 nM; at Rhesus PDE2A3 (setting [4]) it was 2.4 nM; on Rhesus PDE2A3 (setting [3]) it was 4 nM. Also, the efflux ratio at 1 μM in data set [1] turned out to be 7.5; at P-glycoprotein (P-gp), 2.6.

In the case of `C[C@@H](NC(=O)c1cc(=O)[nH]c(N2Cc3cncnc3C2)n1)c1ccc(C(F)(F)F)cc1` [Example 161, 2-(5,7-dihydro-6H-pyrrolo[3,4-d]pyrimidin-6-yl)-6-oxo-N-{(1R)-1-[4-(trifluoromethyl)phenyl]ethyl}-1,6-dihydropyrimidine-4-carboxamide], the figures for the Ki at human PDE2A1 (setting [5]) and on Rhesus PDE2A3 (setting [4]) were 5 nM and 5.1 nM, respectively. Further, the efflux ratio at 1 μM in data set [1] came to 23.7; on P-glycoprotein (P-gp), 14.6.

Turning to `CN(C)c1nc(C(=O)N[C@@H](c2ccc(C3CC3)c(F)c2)C(C)(C)C)cc(=O)[nH]1` [Example 58, N-[(1R)-1-(4-cyclopropyl-3-fluorophenyl)-2,2-dimethylpropyl]-2-(dimethylamino)-6-oxo-1,6-dihydropyrimidine-4-carboxamide], the Ki was determined as 0.03 nM at human PDE2A1 (setting [2]) and 0.1 nM at Rhesus PDE2A3 (setting [3]). For the same compound, the efflux ratio at 1 μM in data set [1] stood at 4.7; at P-glycoprotein (P-gp) it was 1.3.

Consider `C[C@@H](NC(=O)c1cc(=O)[nH]c(N2CCCC2)n1)c1ccc(SC(F)(F)F)cc1` [Example 146, 6-oxo-2-pyrrolidin-1-yl-N-[(1R)-1-{4-[(trifluoromethyl)sulfanyl]phenyl}ethyl]-1,6-dihydro-pyrimidine-4-carboxamide], for which the Ki at human PDE2A1 (setting [5]) was found to be 0.36 nM; on Rhesus PDE2A3 (setting [4]), 0.43 nM. Also, the values for the efflux ratio at 1 μM (in data set [1]; on P-glycoprotein (P-gp)) were 5.4 and 0.9, respectively.

With `C[C@@H](NC(=O)c1cc(=O)[nH]c(N2CC(F)C2)n1)c1ccc(C(F)(F)F)cc1` [Example 23, 2-(3-Fluoroazetidin-1-yl)-6-oxo-N-{(1R)-1-[4-(trifluoromethyl)phenyl]ethyl}-1,6-dihydropyrimidine-4-carboxamide], the figures for the Ki at human PDE2A1 (setting [5]) and on Rhesus PDE2A3 (setting [4]) were 16 nM and 27 nM, respectively. For the same compound, the results for the efflux ratio at 1 μM (in data set [1]; on P-glycoprotein (P-gp)) were 7.6 and 1.4, respectively.

Regarding `CCCOc1nc(C(=O)N[C@H](C)c2ccc(C(F)(F)F)cc2)cc(=O)[nH]1` [Example 178, 6-oxo-2-propoxy-N-{(1R)-1-[4-(trifluoromethyl)phenyl]ethyl}-1,6-dihydropyrimidine-4-carboxamide], the Ki was found to be 52 nM on human PDE2A1 (setting [5]) and 58 nM at Rhesus PDE2A3 (setting [4]). Besides, the efflux ratio at 1 μM in data set [1] was found to be 1; at P-glycoprotein (P-gp), 0.4.

Take `CC(C)[C@@H](NC(=O)c1cc(=O)[nH]c(N(C)C)n1)c1ccc(OC(F)(F)F)cc1` [Example 91, 2-(dimethylamino)-N-{(1R)-2-methyl-1-[4-(trifluoromethoxy)phenyl]propyl}-6-oxo-1,6-dihydropyrimidine-4-carboxamide]: the Ki at human PDE2A1 (setting [5]) came to 0.19 nM; at Rhesus PDE2A3 (setting [4]), 0.64 nM. The efflux ratio at 1 μM was found to be 5.1 in data set [1] and 0.6 on P-glycoprotein (P-gp).

Consider `CC(C)[C@@H](NC(=O)c1cc(=O)[nH]c(N)n1)c1ccc(OC(F)(F)F)c(F)c1` [Example 152, 2-amino-N-{(1R)-1-[3-fluoro-4-(trifluoromethoxy)phenyl]-2-methylpropyl}-6-oxo-1,6-dihydropyrimidine-4-carboxamide], for which the Ki at human PDE2A1 (setting [5]) amounted to 19 nM; on Rhesus PDE2A3 (setting [4]), 33 nM. Also, the efflux ratio at 1 μM in data set [1] was 29.2; on P-glycoprotein (P-gp), 11.6.
